Test results taken from patent US5616566A, “Method of inhibiting HIV replication with 2',3'-dideoxyadenosine” (The United States of America as represented by the …, priority 1993, dated 1997).
Marks after values point to notes of the source that are not given here.

Tests used:
[1] = system: cellular DNA polymerase gamma; conditions: cited from earlier work
[2] = system: mammalian DNA polymerase alpha; conditions: cited from earlier work
[3] = system: cellular DNA polymerase beta; conditions: cited from earlier work
[4] = system: viral reverse transcriptase; conditions: cited from earlier work
[5] = system: Vesicular Stomatitis Virus; test: microbe, parasite or virus in culture; type: cell-based; conditions: HeLa, read-out: Minimal Inhibitory Concentration (required to reduce virus-induced cytopathogenicity by 50%)
[6] = system: HIV (HTLV-III/LAV), ATH8 cells; test: Inhibition of cytopathic effect of HIV (HTLV-III/LAV) against ATH8 cells; type: cell-based, human immunodeficiency virus (HIV)
[7] = system: Coxsackie Virus B4; test: Antiviral activity against Coxsackie Virus B4; type: cell-based; conditions: Enterovirus B, Hela cell cultures, read-out: Minimal Inhibitory Concentration (required to reduce virus-induced cytopathogenicity by 50%)
[8] = system: Parainfluenza Virus-3; test: Antiviral activity against Parainfluenza Virus-3; type: cell-based; conditions: Vero; read-out: Minimal Inhibitory Concentration (required to reduce virus-induced cytopathogenicity by 50%)
[9] = system: DNA and RNA viruses; test: Antiviral activity against a variety of viruses (Table 3 overall); type: cell-based; conditions: Table 3 note
Excerpt: (§1) The antiviral activity of the dideoxynucleosides of the present invention against a variety of viruses were compared. The results, shown in Table 3, indicate that the compositions of the present invention are selectively effective against HIV virus.
(§2) ^1 Required to reduce virusinduced cytopathogenicity by 50%.

[10] = system: Vaccinia; test: microbe, parasite or virus in culture; type: cell-based; conditions: Orthopoxvirus vaccinia, in Oryctolagus cuniculus, read-out: Minimal Inhibitory Concentration (required to reduce virus-induced cytopathogenicity by 50%)
[11] = system: HSV-1; test: Antiviral activity against HSV-1 (first line); type: cell-based; conditions: Human alphaherpesvirus 1; primary rabbit kidney cell cultures; first HSV-1 line; read-out: Minimal Inhibitory Concentration (required to reduce virus-induced cytopathogenicity by 50%)
[12] = system: normal helper/inducer TM3 cells; test: Immune reactivity of normal lymphocytes: tetanus toxoid-driven activation of clone TM3; type: cell-based; conditions: 72 hours
Procedure: There was tested the effects of the various 2',3'-dideoxynucleosides on the antigen-specific and lectin-induced reactivity of normal lymphocytes in vitro (Table 2). There was used a normal clone (TM3)of tetanus-toxoid specific helper/inducer T-cells to monitor the effects of the compounds on antigen-driven activation and normal circulating lymphocytes to monitor effects on pokeweed mitogen and phytohaemagglutinin-driven activation. Concentrations of these compounds, including those that were 10- to 20-fold higher than those necessary to block the in vitro infectivity and cytopathic effect of HIV (HTLV-III/LAV) left the in vitro immune reactivity of normal lymphocytes basically intact.
^2 5 × 10^4 normal helper/inducer TM3 cells were stimulated
with tetanus toxoid (0.6 limiting flocculation units/ml) plus 10^5
irradiated (4,000 rad) autologous peripheral blood mononuclear cells (PBM
as a source of accessory cells and cultured for 72 hours in the presence
or absence of the 2',3dideoxynucleoside. After exposure to 0.5 uCi^3
Hthymidine or 1 uCi ^3 Huidine for the final 5 hours, cells were
harvested onto glass fibers and the incorporated radioactivity was
counted. Data are expressed as the arithmetic mean counts per minute
(×10^3) ± 1 standard deviation triplicate determinations.

[13] = dog, in vivo
[14] = system: HTLV-III; test: Antiviral activity against HTLV-III; type: cell-based, human immunodeficiency virus (HIV); conditions: for IC50: Human immunodeficiency virus 1, ATH-8, T4+ human T cell (ATH8) cultures, read-out: Minimal Inhibitory Concentration (required to reduce virus-induced cytopathogenicity by 50%); for activity against HIV: Table 3 note
Excerpt: as §1, §2
^5 Antiviral activity measured in T4+ human T cell (ATH8) cultures.

[15] = system: PBM (peripheral blood mononuclear cells) stimulated with pokeweed mitogen; test: Immune reactivity of normal lymphocytes: PBM + PWM; type: cell-based; conditions: 72 hours
[16] = system: Sindbis Virus; test: Antiviral activity against Sindbis Virus; type: cell-based; conditions: Vero cell cultures, read-out: Minimal Inhibitory Concentration (required to reduce virus-induced cytopathogenicity by 50%)
Excerpt: as §1, §2
(§3) ^4 Antiviral activity measured in Vero cell cultures.

[17] = system: HSV-1; test: Antiviral activity against HSV-1 (second line); type: cell-based; conditions: Human alphaherpesvirus 1; primary rabbit kidney cell cultures; second HSV-1 line; read-out: Minimal Inhibitory Concentration (required to reduce virus-induced cytopathogenicity by 50%)
[18] = system: PBM (peripheral blood mononuclear cells) stimulated with phytohaemagglutinin; test: Immune reactivity of normal lymphocytes: PBM + PHA; type: cell-based; conditions: 72 hours
[19] = system: Semliki Forest Virus; test: Antiviral activity against Semliki Forest Virus; type: cell-based; conditions: Vero cell cultures, read-out: Minimal Inhibitory Concentration (required to reduce virus-induced cytopathogenicity by 50%)
Excerpt: as §1, §2, §3

[20] = system: Reovirus-1; test: Antiviral activity against Reovirus-1; type: cell-based; conditions: Vero cell cultures; read-out: Minimal Inhibitory Concentration (required to reduce virus-induced cytopathogenicity by 50%)
[21] = system: Polio Virus-1; test: organism not typed; type: cell-based; conditions: HeLa, read-out: Minimal Inhibitory Concentration (required to reduce virus-induced cytopathogenicity by 50%)
[22] = system: HIV (HTLV-III/LAV) p24 gag protein, H9 cells; test: Inhibition of infectivity and replication of HIV (p24 gag protein expression) in H9 cells; type: cell-based, human immunodeficiency virus (HIV)
[23] = 10 uM, 3H-thymidine incorporation, mean ± 1 SD, triplicate
[24] = 100 uM, 3H-thymidine incorporation, mean ± 1 SD, triplicate
[25] = 1 uM, 3H-uridine incorporation, mean ± 1 SD, triplicate
[26] = 10 uM, 3H-uridine incorporation, mean ± 1 SD, triplicate
[27] = 200 uM, 3H-uridine incorporation
[28] = 2,000 uM, 3H-uridine incorporation, mean ± 1 SD, triplicate

Nc1ncnc2c1ncn2[C@H]1CC[C@@H](COP(=O)(O)OP(=O)(O)OP(=O)(O)O)O1
inhibition of cellular DNA polymerase gamma [1]: can inhibit
inhibition of mammalian DNA polymerase alpha [2]: but not mammalian DNA polymerase alpha
inhibition of cellular DNA polymerase beta [3]: can inhibit
inhibition of viral reverse transcriptase [4]: can inhibit

Nc1nc2c(ncn2[C@H]2CC[C@@H](COP(=O)(O)OP(=O)(O)OP(=O)(O)O)O2)c(=O)[nH]1
inhibition of cellular DNA polymerase gamma [1]: can inhibit
inhibition of mammalian DNA polymerase alpha [2]: but not mammalian DNA polymerase alpha
inhibition of cellular DNA polymerase beta [3]: can inhibit
inhibition of viral reverse transcriptase [4]: can inhibit

Nc1ncnc2c1ncn2[C@H]1CC[C@@H](CO)O1 [2',3'-dideoxyadenosine]
IC50 [5]: > 2000 µM
anti-retroviral activity against HIV [6]: have anti-retroviral activity against HIV
IC50 [7]: > 2000 µM
IC50 [8]: > 2000 µM
activity against the broad spectrum of DNA and RNA viruses [9]: not active
IC50 [10]: > 2000 µM
IC50 [11]: > 2000 µM
activation of clone TM3, mean counts per minute [12, 23]: 86 ± 8 counts per minute (×10^3)
activation of clone TM3, mean counts per minute [12, 24]: 67 ± 2 counts per minute (×10^3)
oral bioavailability ([13]; pH 7): 41.6%
conversion of orally administered ddA to ddI ([13]; po): converted almost entirely to 2',3'-dideoxyinosine (ddI)
IC50 [14]: 5 µM
activity against HIV [14]: active against HIV
activation of PBM + PWM, mean counts per minute [15, 23]: 63 ± 5 counts per minute (×10^3)
activation of PBM + PWM, mean counts per minute [15, 24]: 57 ± 3 counts per minute (×10^3)
IC50 [16]: > 2000 µM
IC50 [17]: > 2000 µM
activation of PBM + PHA, mean counts per minute [18, 23]: 289 ± 18 counts per minute (×10^3)
activation of PBM + PHA, mean counts per minute [18, 24]: 314 ± 37 counts per minute (×10^3)
IC50 [19]: > 2000 µM
IC50 [20]: > 2000 µM
IC50 [21]: > 2000 µM

Nc1ccn([C@H]2CC[C@@H](CO)O2)c(=O)n1 [2',3'-dideoxycytidine]
IC50 [5]: > 2000 µM
IC50 [7]: > 2000 µM
IC50 [8]: > 2000 µM
activity against the broad spectrum of DNA and RNA viruses [9]: not active
IC50 [10]: > 2000 µM
IC50 [11]: > 2000 µM
activation of clone TM3, mean counts per minute [12, 25]: 13 ± 1 counts per minute (×10^3)
activation of clone TM3, mean counts per minute [12, 26]: 8 ± 1 counts per minute (×10^3)
IC50 [14]: 0.3 µM
activity against HIV [14]: active against HIV
activation of PBM + PWM, mean counts per minute [15, 25]: 23 ± 3 counts per minute (×10^3)
activation of PBM + PWM, mean counts per minute [15, 26]: 15 ± 3 counts per minute (×10^3)
IC50 [16]: > 2000 µM
IC50 [17]: > 2000 µM
activation of PBM + PHA, mean counts per minute [18, 25]: 101 ± 1 counts per minute (×10^3)
activation of PBM + PHA, mean counts per minute [18, 26]: 86 ± 3 counts per minute (×10^3)
IC50 [19]: > 2000 µM
IC50 [20]: > 2000 µM
IC50 [21]: > 2000 µM

Nc1nc2c(ncn2[C@H]2CC[C@@H](CO)O2)c(=O)[nH]1 [2',3'-dideoxyguanosine]
activation of clone TM3, mean counts per minute [12, 23]: 66 ± 5 counts per minute (×10^3)
activation of clone TM3, mean counts per minute [12, 24]: 77 ± 1 counts per minute (×10^3)
activation of PBM + PWM, mean counts per minute [15, 23]: 73 ± 8 counts per minute (×10^3)
activation of PBM + PWM, mean counts per minute [15, 24]: 62 ± 5 counts per minute (×10^3)
activation of PBM + PHA, mean counts per minute [18, 23]: 350 ± 4 counts per minute (×10^3)
activation of PBM + PHA, mean counts per minute [18, 24]: 469 ± 9 counts per minute (×10^3)

OC[C@@H]1CC[C@H](n2cnc3c(O)ncnc32)O1 [2',3'-dideoxyinosine]
anti-retroviral activity against HIV [6]: have anti-retroviral activity against HIV
activation of clone TM3, mean counts per minute [12, 23]: 62 ± 4 counts per minute (×10^3)
activation of clone TM3, mean counts per minute [12, 24]: 81 ± 4 counts per minute (×10^3)
activation of PBM + PWM, mean counts per minute [15, 23]: 61 ± 1 counts per minute (×10^3)
activation of PBM + PWM, mean counts per minute [15, 24]: 62 ± 5 counts per minute (×10^3)
activation of PBM + PHA, mean counts per minute [18, 23]: 298 ± 20 counts per minute (×10^3)
activation of PBM + PHA, mean counts per minute [18, 24]: 355 ± 37 counts per minute (×10^3)

Cc1cn([C@H]2CC[C@@H](CO)O2)c(=O)[nH]c1=O [2',3'-dideoxythymidine]
IC50 [5]: > 2000 µM
concentration required to mediate an anti-viral effect (p24 gag expression) [22]: relatively higher concentrations
resumption of viral replication ([22]; day 10 of culture): allowed a resumption of viral replication by day 10 of culture
concentration required to exert a protective effect ([6]; ATH8 cells): relatively high concentrations
capacity to nullify the cytopathic effect of the virus ([6]; day 10 of culture, ATH8 cells): lost on day 10 of the culture
IC50 [7]: > 2000 µM
IC50 [8]: > 2000 µM
IC50 [10]: > 2000 µM
IC50 [11]: > 2000 µM
activation of clone TM3, mean counts per minute [12, 27]: 9 counts per minute (×10^3)
activation of clone TM3, mean counts per minute [12, 28]: 9 counts per minute (×10^3)
IC50 [14]: 200 µM
activation of PBM + PWM, mean counts per minute [15, 27]: 31 counts per minute (×10^3)
activation of PBM + PWM, mean counts per minute [15, 28]: 31 counts per minute (×10^3)
IC50 [16]: > 2000 µM
IC50 [17]: > 2000 µM
activation of PBM + PHA, mean counts per minute [18, 27]: 86 counts per minute (×10^3)
activation of PBM + PHA, mean counts per minute [18, 28]: 77 counts per minute (×10^3)
IC50 [19]: > 2000 µM
IC50 [20]: > 2000 µM
IC50 [21]: > 2000 µM

O=c1ccn([C@H]2CC[C@@H](CO)O2)c(=O)[nH]1 [Dideoxyuridine]
IC50 [5]: > 2000 µM
IC50 [7]: > 2000 µM
IC50 [8]: > 2000 µM
IC50 [10]: > 2000 µM
IC50 [11]: > 2000 µM
IC50 [14]: > 100 µM
IC50 [16]: > 2000 µM
IC50 [17]: > 2000 µM
IC50 [19]: > 2000 µM
IC50 [20]: > 2000 µM
IC50 [21]: > 2000 µM
